Measured values as given in PubChem BioAssay (NCI).
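The compound was tested at five concentrations on cells cultured in 96-well plates, with a 48-hour exposure period. Here, GI50 denotes the concentration required for 50% inhibition of growth. TGI is the concentration that stops growth completely.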

Columns and labels:
Assay in all cases: DTP human tumour cell line panel, 48 h
[1] = system: U251 CNS
[2] = system: SK-OV-3 ovarian
[3] = system: HS 578T breast
[4] = system: UO-31 renal
[5] = system: HOP-92 NSCLC
[6] = system: HL-60(TB) leukemia
[7] = system: PC-3 prostate
[8] = system: MDA-MB-231 breast
[9] = system: SNB-19 CNS
[10] = system: NCI-H460 lung
[11] = system: NCI/ADR-RES ovarian
[12] = system: DU-145 prostate
[13] = system: HCT-15 colon
[14] = system: TK-10 renal
[15] = system: OVCAR-5 ovarian
[16] = system: HCT-116 colon
[17] = system: OVCAR-4 ovarian
[18] = system: RXF 393 renal
[19] = system: SR leukemia
[20] = system: HOP-62 NSCLC
[21] = system: SNB-75 CNS
[22] = system: MDA-MB-435
[23] = system: IGROV1 ovarian
[24] = system: ACHN renal
[25] = system: OVCAR-8 ovarian
[26] = system: A549 NSCLC
[27] = system: M14 melanoma
[28] = system: SF-295 CNS
[29] = system: UACC-62 melanoma
[30] = system: 786-0 renal
[31] = system: MDA-MB-468 breast
[32] = system: SW-620 colon
[33] = system: MOLT-4 leukemia
[34] = system: T-47D breast
[35] = system: K-562 leukemia
[36] = system: EKVX NSCLC
[37] = system: COLO 205 colon
[38] = system: HT29 colon
[39] = system: SF-539 CNS
[40] = system: CCRF-CEM leukemia
[41] = system: LOX IMVI melanoma
[42] = system: NCI-H23 lung
[43] = system: BT-549 breast
[44] = system: A498 renal
[45] = system: SK-MEL-5 melanoma
[46] = system: HCC-2998 colon
[47] = system: UACC-257 melanoma
[48] = system: SF-268 CNS
[49] = system: RPMI-8226 leukemia
[50] = system: SK-MEL-28 melanoma
[51] = system: NCI-H522 lung
[52] = system: KM12 colon
[53] = system: MCF7 breast
[54] = system: CAKI-1 renal
[55] = system: MALME-3M melanoma
[56] = system: SN12C renal
[57] = system: NCI-H226 lung
[58] = system: OVCAR-3 ovarian
[59] = system: SK-MEL-2 melanoma

SMILES: O=C(CSc1nnc(-c2ccc3nc(-c4ccc(Cl)cc4)[nH]c3c2)o1)Nc1ccc(Br)cc1
- GI50 [1]: 2690 nM
- TGI [1]: 6.66 µM
- GI50 [2]: 16.5 µM
- TGI [2]: 31.7 µM
- GI50 [3]: 4.09 µM
- TGI [3]: 24.7 µM
- GI50 [4]: 11.8 µM
- TGI [4]: 24 µM
- GI50 [5]: 3.55 µM
- TGI [5]: 15.7 µM
- GI50 [6]: 2910 nM
- TGI [6]: 15.6 µM
- GI50 [7]: 3.28 µM
- TGI [7]: 16.6 µM
- GI50 [8]: 2370 nM
- TGI [8]: 6.07 µM
- GI50 [9]: 4.2 µM
- TGI [9]: 14.6 µM
- GI50 [10]: 2390 nM
- TGI [10]: 5.78 µM
- GI50 [11]: 4.31 µM
- TGI [11]: 15.7 µM
- GI50 [12]: 5.83 µM
- TGI [12]: 19.1 µM
- GI50 [13]: 4.18 µM
- TGI [13]: 16.3 µM
- GI50 [14]: 20.2 µM
- TGI [14]: 36.8 µM
- GI50 [15]: 14.2 µM
- TGI [15]: 29.5 µM
- GI50 [16]: 2780 nM
- TGI [16]: 7.81 µM
- GI50 [17]: 6.65 µM
- TGI [17]: 26.7 µM
- GI50 [18]: 2600 nM
- TGI [18]: 8.42 µM
- GI50 [19]: 9.89 µM
- TGI [19]: > 100 µM
- GI50 [20]: 5.96 µM
- TGI [20]: 20.2 µM
- GI50 [21]: 2360 nM
- TGI [21]: 14.1 µM
- GI50 [22]: 2900 nM
- TGI [22]: 9.3 µM
- GI50 [23]: 10.6 µM
- TGI [23]: 23 µM
- GI50 [24]: 3.47 µM
- TGI [24]: 12.5 µM
- GI50 [25]: 3.9 µM
- TGI [25]: 19.4 µM
- GI50 [26]: 3.89 µM
- TGI [26]: 19.8 µM
- GI50 [27]: 2560 nM
- TGI [27]: 6.09 µM
- GI50 [28]: 6.17 µM
- TGI [28]: 19.2 µM
- GI50 [29]: 4.63 µM
- TGI [29]: 16.8 µM
- GI50 [30]: 2130 nM
- TGI [30]: 4.76 µM
- GI50 [31]: 5310 nM
- TGI [31]: 17.6 µM
- GI50 [32]: 4.99 µM
- TGI [32]: 18.5 µM
- GI50 [33]: 3.19 µM
- TGI [33]: 15.4 µM
- GI50 [34]: 18.3 µM
- TGI [34]: 65.8 µM
- GI50 [35]: 3.2 µM
- TGI [35]: 15.1 µM
- GI50 [36]: 9.52 µM
- TGI [36]: 21.6 µM
- GI50 [37]: 12.8 µM
- TGI [37]: 27.5 µM
- GI50 [38]: 5.66 µM
- TGI [38]: 27.3 µM
- GI50 [39]: 2860 nM
- TGI [39]: 9.19 µM
- GI50 [40]: 3.33 µM
- TGI [40]: 20.4 µM
- GI50 [41]: 1630 nM
- TGI [41]: 2980 nM
- GI50 [42]: 2400 nM
- TGI [42]: 6.17 µM
- GI50 [43]: 2660 nM
- TGI [43]: 6.12 µM
- GI50 [44]: 18.8 µM
- TGI [44]: 34.8 µM
- GI50 [45]: 3.69 µM
- TGI [45]: 13.6 µM
- GI50 [46]: 8.56 µM
- TGI [46]: 20.9 µM
- GI50 [47]: 5.65 µM
- TGI [47]: 20.5 µM
- GI50 [48]: 5.66 µM
- TGI [48]: 22.3 µM
- GI50 [49]: 8.26 µM
- TGI [49]: 86.3 µM
- GI50 [50]: 5.04 µM
- TGI [50]: 17.5 µM
- GI50 [51]: 4.73 µM
- TGI [51]: 19.8 µM
- GI50 [52]: 10.4 µM
- TGI [52]: 41.5 µM
- GI50 [53]: 3.86 µM
- TGI [53]: 17.7 µM
- GI50 [54]: 3.74 µM
- TGI [54]: 14.9 µM
- GI50 [55]: 3.83 µM
- TGI [55]: 15.4 µM
- GI50 [56]: 2910 nM
- TGI [56]: 11.2 µM
- GI50 [57]: 3.45 µM
- TGI [57]: 16 µM
- GI50 [58]: 11.3 µM
- TGI [58]: 28.2 µM
- GI50 [59]: 4.74 µM
- TGI [59]: 18.4 µM

SMILES: Cc1nn(-c2ccc(F)cc2)c2ncnc(Nc3ccc(NC(=O)Nc4ccc(Cl)c(C(F)(F)F)c4)cc3)c12
- GI50 [31]: 1800 nM
- TGI [31]: 4.54 µM

SMILES: CCn1c(-c2nonc2N)nc2c(C#CCN)ncc(OCCCN)c21
- GI50 [31]: > 25000 nM
- TGI [31]: > 25 µM

SMILES: Cc1[nH]c(/C=C2\C(=O)Nc3ccc(S(=O)(=O)Cc4c(Cl)cccc4Cl)cc32)c(C)c1C(=O)N1CCC[C@@H]1CN1CCCC1
- GI50 [31]: 1520 nM
- TGI [31]: 2.94 µM

SMILES: NC(N)=N/N=C(/c1ccccc1)c1ccc(F)cc1
- GI50 [31]: 220 nM
- TGI [31]: 2.46 µM

SMILES: Fc1cccc(COc2ccc(Nc3ncncc3C#Cc3ccccc3)cc2Cl)c1
- GI50 [31]: 8770 nM
- TGI [31]: > 25 µM

SMILES: Cc1cc([C@@H](C)Nc2ccccc2C(=O)O)c2nc(N3CCOCC3)cc(=O)n2c1
- GI50 [31]: 2210 nM
- TGI [31]: > 10 µM

SMILES: COc1cc2c3c(cccc3c1)C(=O)N(CCN1CCCC1)C2=O
- GI50 [31]: 1320 nM
- TGI [31]: 3.7 µM

SMILES: Cc1cc2nc3c4cc(Cl)ccc4n(CCN(C)C)c3nc2cc1C
- GI50 [31]: 1410 nM
- TGI [31]: 3.58 µM

SMILES: O=c1cc(-c2cccc(F)c2)[nH]c2cc3c(cc12)OCO3
- GI50 [31]: 10800 nM
- TGI [31]: 45.2 µM

SMILES: N#CC(=C1SCS1)[N+](=O)[O-]
- GI50 [31]: 249 nM
- TGI [31]: 0.846 µM

SMILES: CN1CCN(Cc2ccc(C(=O)Nc3cncc(C#Cc4cnc(N)c5ccccc45)c3)cc2C(F)(F)F)CC1
- GI50 [31]: 1770 nM
- TGI [31]: 3.65 µM

SMILES: COC1(C(=O)N2Cc3nc(Cl)nc(N[C@H](C)c4cc(N)cc(C(F)(F)F)c4)c3C2)CCOCC1
- GI50 [31]: 4440 nM
- TGI [31]: 40.1 µM

SMILES: Clc1ccccc1C(c1ccccc1)(c1ccccc1)n1ccnc1
- GI50 [31]: 1770 nM
- TGI [31]: 6.21 µM

SMILES: CCC(C)C1NC(=O)c2nc(oc2-c2ccccc2)-c2csc(n2)-c2csc(n2)-c2nc(oc2C)-c2coc(n2)CNC(=O)C(C(C)CC)NC1=O (stereo unspecified)
- GI50 [31]: 30 nM
- TGI [31]: 0.101 µM
